Laboratory results as given in the SangsterLogP compilation.

Structure (SMILES)	logP
CCC(=O)OCCOc1ccc(-c2ccncc2)c(C)n1	3.21
CC(=O)OCCOc1ccc(-c2ccncc2)cn1	1.92
CC(=O)OCCNc1ccc(-c2ccncc2)cn1	2
CC(=O)N1CCN(c2ccc(-c3ccncc3)cn2)CC1	2.04
CCC(=O)OCCCNc1ccc(-c2ccncc2)cn1	2.87
O=C(OCCNc1ccc(-c2ccncc2)cn1)c1cccnc1	2.58
CCC(=O)N1CCN(c2ccc(-c3ccncc3)cn2)CC1	2.39
O=C(OCCNc1ccc(-c2ccncc2)cn1)c1ccccc1	3.84
CC(=O)N1CCN(c2ccc(-c3ccccc3)c(C)n2)CC1	4.08

Further lines, results first:

logP	Structure (SMILES)
2.44	CC(=O)OCCN(CCOC(C)=O)c1ncc(-c2ccncc2)cc1C#N
2.47	CCC(=O)OCCNc1ccc(-c2ccncc2)cn1
2.42	CC(=O)OCCCNc1ccc(-c2ccncc2)cn1
4.06	O=C(OCCCNc1ccc(-c2ccncc2)cn1)c1ccccc1
2.59	CC(=O)OCCNc1ccc(-c2ccncc2)c(C)n1
4	CC(=O)OCCOc1ccc(-c2ccccc2)c(C)n1
3.07	CCC(=O)OCCCOc1ccc(-c2ccncc2)cn1
2.48	CC(=O)OCCCOc1ccc(-c2ccncc2)cn1
2.91	CC(=O)OCCCNc1ccc(-c2ccncc2)c(C)n1
2.51	CC(=O)OCC(COc1ncc(-c2ccncc2)cc1C#N)OC(C)=O (stereo not given)
3.74	CC(=O)COC(C)CNc1ccc(-c2ccccc2)c(C)n1 (stereo not given)
